Test results published in ChEMBL document CHEMBL1155810, “Synthesis, structure-activity relationships, and biological profiles of a quinazolinone class of histamine H3 receptor inverse agonists” (J Med Chem, 2008).
Each block holds one compound with its values, some of them ahead of it. Active and inactive are the calls of the source. The rule behind the calls is not given here.

Experiments:
Histamine H3 receptor [1] = target: Histamine H3 receptor (Homo sapiens, UniProt Q9Y5N1); experiment: Inverse agonist activity at human histamine H3 receptor expressed in CHO-K1 cells assessed as inhibition of N-alpha-methylhistamine-induced [35S]GTPgammaS binding; type: functional, cell-based
Chain of Histamine H3 receptor (Homo sapiens, UniProt Q9Y5N1) (Q9Y5N1 whole entry): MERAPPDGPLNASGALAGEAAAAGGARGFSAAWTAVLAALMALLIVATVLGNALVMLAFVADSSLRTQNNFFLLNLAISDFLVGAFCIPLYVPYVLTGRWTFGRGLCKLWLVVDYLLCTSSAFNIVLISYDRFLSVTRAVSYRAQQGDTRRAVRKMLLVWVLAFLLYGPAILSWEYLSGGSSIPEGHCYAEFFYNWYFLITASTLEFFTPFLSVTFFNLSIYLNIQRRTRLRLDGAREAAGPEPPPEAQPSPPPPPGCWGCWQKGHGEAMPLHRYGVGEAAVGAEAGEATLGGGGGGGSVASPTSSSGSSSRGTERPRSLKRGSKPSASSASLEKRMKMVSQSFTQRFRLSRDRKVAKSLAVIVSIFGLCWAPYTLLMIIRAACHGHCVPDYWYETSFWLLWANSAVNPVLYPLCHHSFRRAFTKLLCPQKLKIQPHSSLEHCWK

[2] = target: Voltage-gated inwardly rectifying potassium channel KCNH2 (Homo sapiens, UniProt Q12809)
Chain of Voltage-gated inwardly rectifying potassium channel KCNH2 (Q12809 whole entry): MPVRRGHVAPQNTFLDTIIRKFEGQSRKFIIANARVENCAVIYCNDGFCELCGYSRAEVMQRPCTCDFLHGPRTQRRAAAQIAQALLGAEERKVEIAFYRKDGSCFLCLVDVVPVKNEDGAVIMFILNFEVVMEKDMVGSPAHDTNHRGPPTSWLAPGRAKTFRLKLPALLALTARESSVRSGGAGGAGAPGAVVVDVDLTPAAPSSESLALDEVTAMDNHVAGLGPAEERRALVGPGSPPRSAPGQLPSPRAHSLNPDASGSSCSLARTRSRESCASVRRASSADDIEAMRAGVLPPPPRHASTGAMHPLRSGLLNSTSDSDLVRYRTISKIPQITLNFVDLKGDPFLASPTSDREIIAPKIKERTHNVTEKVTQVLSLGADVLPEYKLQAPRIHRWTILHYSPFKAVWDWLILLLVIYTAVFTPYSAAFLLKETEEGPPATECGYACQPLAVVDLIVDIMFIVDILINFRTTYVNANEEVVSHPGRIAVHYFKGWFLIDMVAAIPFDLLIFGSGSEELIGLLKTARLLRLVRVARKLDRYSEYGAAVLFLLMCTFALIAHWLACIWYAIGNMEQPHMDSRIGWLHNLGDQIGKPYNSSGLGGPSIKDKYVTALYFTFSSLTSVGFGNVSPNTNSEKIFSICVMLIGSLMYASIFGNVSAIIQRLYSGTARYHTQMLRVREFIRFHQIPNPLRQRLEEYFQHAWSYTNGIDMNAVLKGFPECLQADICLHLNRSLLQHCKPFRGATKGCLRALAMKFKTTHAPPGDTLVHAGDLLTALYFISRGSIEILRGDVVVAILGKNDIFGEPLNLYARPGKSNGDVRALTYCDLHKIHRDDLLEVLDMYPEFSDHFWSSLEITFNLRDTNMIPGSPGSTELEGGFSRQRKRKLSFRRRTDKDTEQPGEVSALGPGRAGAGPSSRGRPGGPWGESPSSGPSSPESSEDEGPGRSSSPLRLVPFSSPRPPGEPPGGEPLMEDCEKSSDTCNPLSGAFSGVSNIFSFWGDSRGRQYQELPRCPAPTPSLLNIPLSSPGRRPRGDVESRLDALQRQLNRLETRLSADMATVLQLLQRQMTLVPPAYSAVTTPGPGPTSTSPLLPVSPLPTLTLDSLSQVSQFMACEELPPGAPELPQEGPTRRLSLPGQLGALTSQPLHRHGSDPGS

[3] = Cmax in Sprague-Dawley rat at 3 mg/kg, po; type: ADME, organism-based; parameters: dose 3 mg/kg, route oral; settings: in vivo
Cytochrome P450 1A2 = target: T1, Cytochrome P450 1A2 (Homo sapiens, UniProt P05177); experiment: Inhibition of CYP1A2; type: ADME
T1 sequence (P05177 whole entry): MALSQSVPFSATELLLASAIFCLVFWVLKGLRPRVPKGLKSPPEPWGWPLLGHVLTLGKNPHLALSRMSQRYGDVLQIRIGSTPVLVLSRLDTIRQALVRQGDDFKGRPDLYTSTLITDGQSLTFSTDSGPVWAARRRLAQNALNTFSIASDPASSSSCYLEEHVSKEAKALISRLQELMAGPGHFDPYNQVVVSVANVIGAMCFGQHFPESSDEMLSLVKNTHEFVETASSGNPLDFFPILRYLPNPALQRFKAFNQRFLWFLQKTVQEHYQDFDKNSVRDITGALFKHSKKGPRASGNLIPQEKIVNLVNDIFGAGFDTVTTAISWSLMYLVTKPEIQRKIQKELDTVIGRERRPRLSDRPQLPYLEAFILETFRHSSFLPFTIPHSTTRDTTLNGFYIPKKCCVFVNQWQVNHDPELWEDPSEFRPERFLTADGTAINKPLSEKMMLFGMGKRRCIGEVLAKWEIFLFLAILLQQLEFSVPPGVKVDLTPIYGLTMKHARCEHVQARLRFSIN

[4] = Plasma clearance in rhesus monkey at 1 mg/kg, iv; type: ADME, organism-based, Macaca mulatta; parameters: dose 1 mg/kg, route intravenous
[5] = Ratio of drug level in Sprague-Dawley rat brain to plasma; type: ADME; settings: read-out: BPR
Mus musculus [6] = species: Mus musculus; experiment: Ex vivo receptor occupancy of […] histamine H3 receptor in wild type MDR1a-proficient CF1 mouse plasma; type: functional
Histamine H3 receptor [7] = target: Histamine H3 receptor (Rattus norvegicus, UniProt Q9QYN8); experiment: Displacement of [3H]N-alpha-methylhistamine from rat histamine H3 receptor expressed in HEK293 cells coexpressed with CRE-beta-lactamase; type: cell-based
Chain of Histamine H3 receptor (Rattus norvegicus, UniProt Q9QYN8) (Q9QYN8 whole entry): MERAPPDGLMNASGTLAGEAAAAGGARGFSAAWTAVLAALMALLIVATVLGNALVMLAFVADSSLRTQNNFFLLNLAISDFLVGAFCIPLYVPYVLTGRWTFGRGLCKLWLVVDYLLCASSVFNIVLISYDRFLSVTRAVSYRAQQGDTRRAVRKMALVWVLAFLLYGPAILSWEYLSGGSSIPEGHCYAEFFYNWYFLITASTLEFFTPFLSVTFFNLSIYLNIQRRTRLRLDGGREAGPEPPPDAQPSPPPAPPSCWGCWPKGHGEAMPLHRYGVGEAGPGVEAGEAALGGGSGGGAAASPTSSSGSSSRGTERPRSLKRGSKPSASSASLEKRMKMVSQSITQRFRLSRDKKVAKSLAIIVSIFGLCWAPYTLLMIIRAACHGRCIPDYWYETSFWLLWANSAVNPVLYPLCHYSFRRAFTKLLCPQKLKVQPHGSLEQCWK

Cytochrome P450 2A6 = target: T2, Cytochrome P450 2A6 (Homo sapiens, UniProt P11509); experiment: Inhibition of CYP2A6; type: ADME
T2 sequence (P11509 whole entry): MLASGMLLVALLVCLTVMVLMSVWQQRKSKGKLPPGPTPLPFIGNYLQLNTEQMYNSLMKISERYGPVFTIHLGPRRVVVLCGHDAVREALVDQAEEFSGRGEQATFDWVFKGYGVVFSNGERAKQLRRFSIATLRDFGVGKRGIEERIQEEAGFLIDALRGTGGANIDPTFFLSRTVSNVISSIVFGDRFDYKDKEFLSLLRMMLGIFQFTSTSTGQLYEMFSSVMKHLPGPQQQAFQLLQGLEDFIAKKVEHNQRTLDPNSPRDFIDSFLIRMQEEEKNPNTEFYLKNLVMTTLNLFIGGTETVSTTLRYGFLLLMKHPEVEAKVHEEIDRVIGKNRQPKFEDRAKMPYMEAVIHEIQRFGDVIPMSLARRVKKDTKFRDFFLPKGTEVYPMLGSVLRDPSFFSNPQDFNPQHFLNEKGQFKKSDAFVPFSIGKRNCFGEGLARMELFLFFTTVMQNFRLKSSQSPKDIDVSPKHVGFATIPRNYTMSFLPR

[8] = Ratio of drug level in MDR1a-deficient CF1 mouse brain to plasma at 10 mg/kg, po after 2 hrs; type: ADME, organism-based; parameters: dose 10 mg/kg, route oral; settings: read-out: BPR
[9] = Volume of distribution at steady state in Beagle dog at 1 mg/kg, iv; type: ADME, organism-based, Canis lupus familiaris; parameters: dose 1 mg/kg, route intravenous; settings: in vivo, read-out: Vdss
[10] = Oral bioavailability in Sprague-Dawley rat at 3 mg/kg; type: ADME, organism-based; settings: in vivo
[11] = Oral bioavailability in Beagle dog at 3 mg/kg; type: ADME, organism-based, Canis lupus familiaris; settings: in vivo
[12] = Plasma clearance in Sprague-Dawley rat at 1 mg/kg, iv; type: ADME, organism-based; parameters: dose 1 mg/kg, route intravenous
Brain = experiment: Drug level in Sprague-Dawley rat brain at 10 mg/kg, po after 2 hrs; type: ADME, organism-based; parameters: dose 10 mg/kg, route oral; settings: in vivo
[13] = Volume of distribution at steady state in Sprague-Dawley rat at 1 mg/kg, iv; type: ADME, organism-based; parameters: dose 1 mg/kg, route intravenous; settings: in vivo, read-out: Vdss
Cytochrome P450 3A4 = Cytochrome P450 3A4 (Homo sapiens, UniProt P08684); experiment: Inhibition of CYP3A4; type: ADME
Chain of Cytochrome P450 3A4 (P08684 whole entry): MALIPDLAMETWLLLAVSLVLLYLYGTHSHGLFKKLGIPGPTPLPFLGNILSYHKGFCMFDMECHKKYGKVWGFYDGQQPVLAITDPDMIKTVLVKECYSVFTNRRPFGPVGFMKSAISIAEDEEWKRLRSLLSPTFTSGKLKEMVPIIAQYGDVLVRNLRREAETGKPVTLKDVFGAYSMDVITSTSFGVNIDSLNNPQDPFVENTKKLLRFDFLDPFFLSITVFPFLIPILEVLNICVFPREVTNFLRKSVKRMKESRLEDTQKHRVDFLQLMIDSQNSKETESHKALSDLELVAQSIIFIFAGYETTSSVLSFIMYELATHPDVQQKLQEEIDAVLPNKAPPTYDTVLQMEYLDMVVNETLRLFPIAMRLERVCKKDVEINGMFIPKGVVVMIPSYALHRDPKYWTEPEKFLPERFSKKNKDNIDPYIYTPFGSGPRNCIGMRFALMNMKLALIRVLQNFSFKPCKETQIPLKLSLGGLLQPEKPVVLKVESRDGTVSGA

Cytochrome P450 2C9 = Cytochrome P450 2C9 (Homo sapiens, UniProt P11712); experiment: Inhibition of CYP2C9; type: ADME
Chain of Cytochrome P450 2C9 (P11712 whole entry): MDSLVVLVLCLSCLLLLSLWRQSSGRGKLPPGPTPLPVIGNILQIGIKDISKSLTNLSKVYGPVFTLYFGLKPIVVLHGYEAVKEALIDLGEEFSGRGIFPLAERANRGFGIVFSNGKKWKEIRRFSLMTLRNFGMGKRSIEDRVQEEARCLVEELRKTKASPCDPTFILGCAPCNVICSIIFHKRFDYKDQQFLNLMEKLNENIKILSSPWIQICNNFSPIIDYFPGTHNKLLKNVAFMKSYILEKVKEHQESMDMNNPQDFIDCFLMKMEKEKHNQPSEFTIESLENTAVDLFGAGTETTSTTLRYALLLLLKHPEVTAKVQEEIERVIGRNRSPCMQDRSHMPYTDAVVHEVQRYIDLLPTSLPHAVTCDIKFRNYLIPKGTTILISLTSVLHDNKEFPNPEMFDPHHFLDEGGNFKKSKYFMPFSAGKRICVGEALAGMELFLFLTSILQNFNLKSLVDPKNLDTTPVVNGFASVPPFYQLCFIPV

[14] = Cmax in Beagle dog at 3 mg/kg, po; type: ADME, organism-based, Canis lupus familiaris; parameters: dose 3 mg/kg, route oral; settings: in vivo
Cytochrome P450 2D6 = Cytochrome P450 2D6 (Homo sapiens, UniProt P10635); experiment: Inhibition of CYP2D6; type: ADME
Chain of Cytochrome P450 2D6 (P10635 whole entry): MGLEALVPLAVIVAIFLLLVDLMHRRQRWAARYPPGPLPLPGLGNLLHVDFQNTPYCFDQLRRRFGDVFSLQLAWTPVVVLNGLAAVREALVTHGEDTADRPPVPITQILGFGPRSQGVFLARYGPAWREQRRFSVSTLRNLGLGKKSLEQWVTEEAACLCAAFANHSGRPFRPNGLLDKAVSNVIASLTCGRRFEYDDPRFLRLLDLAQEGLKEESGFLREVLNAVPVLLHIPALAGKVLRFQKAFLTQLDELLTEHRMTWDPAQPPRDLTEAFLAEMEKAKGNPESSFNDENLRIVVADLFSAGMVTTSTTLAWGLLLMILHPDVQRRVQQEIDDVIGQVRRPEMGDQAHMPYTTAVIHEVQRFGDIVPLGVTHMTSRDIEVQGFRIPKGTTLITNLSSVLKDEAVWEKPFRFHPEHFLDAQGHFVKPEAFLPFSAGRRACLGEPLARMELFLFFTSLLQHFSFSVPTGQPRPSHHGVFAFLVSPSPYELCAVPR

[15] = Plasma clearance in Beagle dog at 1 mg/kg, iv; type: ADME, organism-based, Canis lupus familiaris; parameters: dose 1 mg/kg, route intravenous
Mus musculus [16] = species: Mus musculus; experiment: Ex vivo receptor occupancy of […] histamine H3 receptor in wild type MDR1a-proficient CF1 mouse brain; type: functional
[17] = Half life in Sprague-Dawley rat at 1 mg/kg, iv; type: ADME, organism-based; parameters: dose 1 mg/kg, route intravenous; settings: in vivo
Histamine receptor H3 = Histamine receptor H3 (Macaca mulatta, UniProt Q865E1); experiment: Displacement of [3H]N-alpha-methylhistamine from rhesus monkey histamine H3 receptor expressed in HEK293T cells; type: cell-based, HEK-293T
Chain of Histamine receptor H3 (Q865E1 whole entry): as the sequence (Q9Y5N1 whole entry) above, with D148N, A240G, V282A, A289T, T290A, V300A, H442Q counted along it

[18] = Half life in Beagle dog at 1 mg/kg, iv; type: ADME, organism-based, Canis lupus familiaris; parameters: dose 1 mg/kg, route intravenous; settings: in vivo
[19] = Ratio of drug level in wild type MDR1a-proficient CF1 mouse brain to plasma at 10 mg/kg, po after 2 hrs; type: ADME, organism-based; parameters: dose 10 mg/kg, route oral; settings: read-out: BPR
[20] = Cmax in rhesus monkey at 3 mg/kg, po; type: ADME, organism-based, Macaca mulatta; parameters: dose 3 mg/kg, route oral; settings: in vivo
Histamine H2 receptor = Histamine H2 receptor (Homo sapiens, UniProt P25021); experiment: Inhibition of human histamine H2 receptor
Chain of Histamine H2 receptor (P25021 whole entry): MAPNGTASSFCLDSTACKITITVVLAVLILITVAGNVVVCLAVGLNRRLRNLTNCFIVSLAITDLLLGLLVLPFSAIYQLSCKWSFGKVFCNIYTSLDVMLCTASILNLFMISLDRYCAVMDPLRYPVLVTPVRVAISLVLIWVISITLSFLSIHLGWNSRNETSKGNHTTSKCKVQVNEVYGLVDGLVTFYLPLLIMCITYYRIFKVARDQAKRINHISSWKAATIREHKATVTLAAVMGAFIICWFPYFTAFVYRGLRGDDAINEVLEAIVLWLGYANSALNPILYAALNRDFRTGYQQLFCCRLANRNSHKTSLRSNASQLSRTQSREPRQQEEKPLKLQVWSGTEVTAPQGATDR

Histamine H1 receptor = Histamine H1 receptor (Homo sapiens, UniProt P35367); experiment: Inhibition of human histamine H1 receptor
Chain of Histamine H1 receptor (P35367 whole entry): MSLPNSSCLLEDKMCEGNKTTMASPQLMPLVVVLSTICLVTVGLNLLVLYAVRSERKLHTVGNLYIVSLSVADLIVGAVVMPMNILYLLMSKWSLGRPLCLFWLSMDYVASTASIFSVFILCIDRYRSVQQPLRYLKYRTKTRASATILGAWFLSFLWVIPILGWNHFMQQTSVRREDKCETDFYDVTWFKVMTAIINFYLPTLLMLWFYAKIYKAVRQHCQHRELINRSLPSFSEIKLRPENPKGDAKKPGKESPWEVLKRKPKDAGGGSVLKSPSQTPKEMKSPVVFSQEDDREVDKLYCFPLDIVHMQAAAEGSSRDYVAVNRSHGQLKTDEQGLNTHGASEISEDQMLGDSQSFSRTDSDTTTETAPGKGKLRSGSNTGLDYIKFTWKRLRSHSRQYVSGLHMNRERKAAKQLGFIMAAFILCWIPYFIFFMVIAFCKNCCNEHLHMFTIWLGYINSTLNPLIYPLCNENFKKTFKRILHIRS

[21] = AUC (0 to infinity) in Beagle dog at 3 mg/kg, po; type: ADME, organism-based, Canis lupus familiaris; parameters: time infinity, dose 3 mg/kg, route oral; settings: plasma
Cytochrome P450 2C19 = Cytochrome P450 2C19 (Homo sapiens, UniProt P33261); experiment: Inhibition of CYP2C19; type: ADME
Chain of Cytochrome P450 2C19 (P33261 whole entry): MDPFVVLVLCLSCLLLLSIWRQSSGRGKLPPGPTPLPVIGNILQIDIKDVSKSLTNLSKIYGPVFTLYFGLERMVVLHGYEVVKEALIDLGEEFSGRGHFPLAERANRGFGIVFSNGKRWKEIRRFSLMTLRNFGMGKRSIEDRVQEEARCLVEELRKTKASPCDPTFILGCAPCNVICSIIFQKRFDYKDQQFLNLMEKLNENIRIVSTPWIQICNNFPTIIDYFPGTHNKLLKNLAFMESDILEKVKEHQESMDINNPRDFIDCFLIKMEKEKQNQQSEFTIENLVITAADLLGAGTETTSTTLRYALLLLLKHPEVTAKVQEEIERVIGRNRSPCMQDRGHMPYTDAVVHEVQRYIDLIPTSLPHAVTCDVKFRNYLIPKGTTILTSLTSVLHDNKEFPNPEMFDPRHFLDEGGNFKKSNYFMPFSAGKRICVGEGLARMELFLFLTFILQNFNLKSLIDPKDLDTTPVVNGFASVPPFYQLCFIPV

[22] = Volume of distribution at steady state in rhesus monkey at 1 mg/kg, iv; type: ADME, organism-based, Macaca mulatta; parameters: dose 1 mg/kg, route intravenous; settings: in vivo, read-out: Vdss
Histamine H4 receptor = Histamine H4 receptor (Homo sapiens, UniProt Q9H3N8); experiment: Inhibition of human histamine H4 receptor
Rattus norvegicus [23] = experiment: Effect on histamine release in Sprague-Dawley rat brain assessed as increase in tele-methylhistamine level at 30 mg/kg, po after 2 hrs; type: functional, organism-based; parameters: dose 30 mg/kg
[24] = Plasma concentration in Sprague-Dawley rat at 10 mg/kg, po after 2 hrs; type: ADME, organism-based; parameters: dose 10 mg/kg, route oral
[25] = AUC (0 to infinity) in Sprague-Dawley rat at 3 mg/kg, po; type: ADME, organism-based; parameters: time infinity, dose 3 mg/kg, route oral; settings: plasma
[26] = Half life in rhesus monkey at 1 mg/kg, iv; type: ADME, organism-based, Macaca mulatta; parameters: dose 1 mg/kg, route intravenous; settings: in vivo
Rattus norvegicus [27] = experiment: Ex vivo increase in receptor occupancy of histamine H3 receptor in Sprague-Dawley rat brain at 30 mg/kg, po by autoradiography; type: functional
Mus musculus [28] = species: Mus musculus; experiment: Ex vivo receptor occupancy of […] histamine H3 receptor in MDR1a-deficient CF1 mouse plasma; type: functional
Mus musculus [29] = species: Mus musculus; experiment: Ex vivo receptor occupancy of […] histamine H3 receptor in MDR1a-deficient CF1 mouse brain; type: functional
[30] = AUC (0 to infinity) in rhesus monkey at 3 mg/kg, po; type: ADME, organism-based, Macaca mulatta; parameters: time infinity, dose 3 mg/kg, route oral; settings: plasma
[31] = Oral bioavailability in rhesus monkey at 3 mg/kg; type: ADME, organism-based, Macaca mulatta; settings: in vivo

Structure (SMILES): Cc1nc2ccccc2c(=O)n1-c1ccc(OCCCN2[C@H](C)CC[C@H]2C)cc1
- IC50 (Histamine H3 receptor [1]): 20 nM

Structure (SMILES): Cc1nc2ccccc2c(=O)n1-c1ccc(OCCCN2CC(C)CC(C)C2)cc1 (configuration not stated)
- IC50 (Histamine H3 receptor [1]): 28 nM

Structure (SMILES): Cc1nc2ccccc2c(=O)n1-c1ccc(OCCCN2CCCCCC2)cc1
- IC50 (Histamine H3 receptor [1]): 1.6 nM

Structure (SMILES): Cc1nc2ccccc2c(=O)n1-c1ccc(OCCCN2CCC(C)CC2)cc1
- IC50 (Histamine H3 receptor [1]): 23 nM

Structure (SMILES): Cc1nc2ccccc2c(=O)n1-c1ccc(OCCCN2CCCCC2C)cc1 (configuration not stated)
- IC50 (Histamine H3 receptor [1]): 11 nM

Structure (SMILES): Cc1nc2ccccc2c(=O)n1-c1ccc(OCCCN2CCC[C@@H](C)C2)cc1
- IC50 (Histamine H3 receptor [1]): 41 nM

Structure (SMILES): CCN(CC)CCCOc1ccc(-n2c(C)nc3ccccc3c2=O)cc1
- IC50 (Histamine H3 receptor [1]): 33 nM

Structure (SMILES): Cc1nc2cccc(C(F)(F)F)c2c(=O)n1-c1ccc(OCCCN2CCCC2)cc1 [MK-0249]
- Cmax [3]: 1010 nM
- IC50 (Cytochrome P450 1A2): > 27000 nM
- clearance [4]: 18 mL/min/kg
- Kp [5]: 1.1
- Occ90 (Mus musculus [6]): 1.17 µM
- Ki (Histamine H3 receptor [7]): 33 nM
- IC50 (Cytochrome P450 2A6): > 27000 nM
- Kp at 2 h [8]: 14
- Vd [9]: 9.7 L/kg
- bioavailability [10]: 65%
- bioavailability [11]: > 100%
- clearance [12]: 12 mL/min/kg
- Drug uptake (Brain): 1.67 nmol/g
- Vd [13]: 4.4 L/kg
- IC50 (Cytochrome P450 3A4): > 27000 nM
- IC50 (Cytochrome P450 2C9): > 21000 nM
- Cmax [14]: 1800 nM
- IC50 (Cytochrome P450 2D6): > 27000 nM
- clearance [15]: 19 mL/min/kg
- Occ90 (Mus musculus [16]): 2 nmol/g
- half-life [17]: 5.5 h
- Ki (Histamine receptor H3): 4.3 nM
- half-life [18]: 9.9 h
- Kp at 2 h [19]: 0.8
- Cmax [20]: 440 nM
- IC50 (Histamine H2 receptor): > 10000 nM
- IC50 (Histamine H1 receptor): > 10000 nM
- AUC(0-inf) [21]: 11.8 µM·h
- IC50 (Cytochrome P450 2C19): > 27000 nM
- Vd [22]: 6 L/kg
- IC50 (Histamine H4 receptor): > 10000 nM
- Activity (Rattus norvegicus [23]): Active
- concentration at 2 h [24]: 1580 nM
- AUC(0-inf) [25]: 6.35 µM·h
- half-life [26]: 5.4 h
- Activity (Rattus norvegicus [27]): >90%
- Occ90 (Mus musculus [28]): 40 nM
- Occ90 (Mus musculus [29]): 2 nmol/g
- AUC(0-inf) [30]: 1.84 µM·h
- bioavailability [31]: 28%

Continued by falling IC50 (Histamine H3 receptor [1]), values first:

- IC50 (Histamine H3 receptor [1]): 10 nM
Structure (SMILES): Cc1nc2ccccc2c(=O)n1-c1ccc(OCCCN2CCCCCCC2)cc1

- IC50 (Histamine H3 receptor [1]): 5.8 nM
Structure (SMILES): Cc1nc2ccccc2c(=O)n1-c1ccc(OCCCN2CCC(C)C2)cc1 (configuration not stated)
- IC50 [2]: 6400 nM

- IC50 (Histamine H3 receptor [1]): 4.3 nM
Structure (SMILES): Cc1nc2ccccc2c(=O)n1-c1ccc(OCCCN2CCC[C@H]2C)cc1
- IC50 [2]: > 10000 nM

- IC50 (Histamine H3 receptor [1]): 3.1 nM
Structure (SMILES): Cc1nc2ccccc2c(=O)n1-c1ccc(OCCCN2CCCCC2)cc1

- IC50 (Histamine H3 receptor [1]): 2.2 nM
Structure (SMILES): Cc1nc2ccccc2c(=O)n1-c1ccc(OCCCN2CCC[C@@H]2C)cc1
- IC50 [2]: 6000 nM

- IC50 (Histamine H3 receptor [1]): 0.72 nM
Structure (SMILES): Cc1nc2ccccc2c(=O)n1-c1ccc(OCCCN2CCC[C@H](C)C2)cc1
- IC50 [2]: 5300 nM
